Measurements as given in patent publication US9789116B2, “Compositions and methods of modulating short-chain dehydrogenase activity” (CASE WESTERN RESERVE UNIVERSITY, priority 2013, dated 2017).
One block for each molecule: values may come before it.

Columns and labels:
[1] = target: T1, recombinant 15-PGDH (Homo sapiens (Human), UniProt P15428); assay: Inhibition of enzymatic activity of recombinant 15-PGDH in vitro (NADH generation); format: biochemical
[2] = test system: mouse tissues (colon, bone marrow, liver, lung); assay: PGE2 in mouse tissues after IP injection; format: in vivo
Description: Shown is measurement by Elisa of PGE2 (ng PGE2/mg of tissue protein) from 4 mouse tissues: lung, liver, colon and bone marrow. […] Tissues were harvested for PGE2 assay at either 2 hour (2 h) or 3 hour (3 h) time points following drug injection.

[3] = test system: lethally irradiated mice; assay: Homing of CFSE dye labeled bone marrow cells in lethally irradiated mice; format: in vivo, mouse
Description: Drugs are administered following radiation, following the transplant, and again at 8 hours after the transplant.

[4] = Chemical stability in aqueous solutions; format: physicochemical; conditions: over broad pH range
[5] = Solubility in water; format: physicochemical; conditions: pH=3
[6] = Stability with liver extracts; format: in vitro ADME; conditions: incubated with mouse, rat and human liver extracts
[7] = test system: mice; assay: Immediate toxicity in mice; format: in vivo; conditions: over 24 hours, IP 50 mg/kg body weight
[8] = Hepatocyte stability; format: in vitro ADME; conditions: hepatocytes in culture; read-out: Hepatocyte stability T½
Description: (§1) Time to inhibition refers to the time needed to inhibit the generation of NADH by 15-PGDH from the moment with drug is added into the reaction mix. Delta Tm refers to the shift in melting temperature of recombinant 15-PGDH in the presence of drug (with cofactor NADH also present). Concentration of Full Cell Line Reporter Induction refers to the concentration of drug that needs to be added to reporter cell line to achieve maximal induction of the 15-PGDH-luciferase gene fusion reporter cassette, as measured by luciferase assays. Hepatocyte stability refers to the half-life of compound in the presence of hepatocytes in culture. Toxicity refers to the concentration of compound needed to decrease cell numbers in a cell culture assay.

[9] = test system: cell culture; assay: Toxicity in a cell culture assay (decrease of cell numbers); format: cell-based; conditions: concentration needed to decrease cell numbers in a cell culture assay
Description: as §1

[10] = test system: A549 cells; assay: Cellular toxicity on A549 cells by CellTiter-Glo; format: cell-based; conditions: 24 hours, concentrations of up to 10 μM
Description: FIGS. 38(A-C) show assays of cellular toxicity on A549 cells at 24 hours of 15-PGDH inhibitors as assayed by CellTiter-Glo measurement.

[11] = test system: 15-PGDH-luciferase fusion reporter in V9m, LS174T and V503 cells; assay: 15-PGDH-luciferase fusion gene reporter induction in colon cancer cell lines; format: cell-based; conditions: for luciferase activity of 15-PGDH luciferase fusion cells: V9m, LS174T, V503, various concentrations
[12] = test system: 15-PGDH mRNA; assay: 15-PGDH mRNA levels in colon cancer cell lines by real-time PCR; format: cell-based; conditions: treated colon cancer cell lines, real-time PCR
Excerpt: In these studies parental cell lines (not containing the 15-PGDH-luciferase reporter) are employed.

[13] = test system: A549 cells; assay: PGE2 levels in medium of IL1-beta stimulated A549 cells; format: cell-based; conditions: for PGE2 induction compared with SW033291: 4 nM to 2500 nM
[14] = target: T1, recombinant 15-PGDH; assay: Melting temperature shift of recombinant 15-PGDH (SYPRO Orange); format: binding
[15] = test system: wild-type mouse bone marrow; assay: Hematopoietic colonies from bone marrow treated ex vivo; format: cell-based; conditions: 1 uM, ex vivo on ice 2 hours; compared with SW033291
Excerpt: Treated marrow is again then plated into methylcellulose for counting of hematopoietic colonies.

T1 sequence (P15428 whole entry): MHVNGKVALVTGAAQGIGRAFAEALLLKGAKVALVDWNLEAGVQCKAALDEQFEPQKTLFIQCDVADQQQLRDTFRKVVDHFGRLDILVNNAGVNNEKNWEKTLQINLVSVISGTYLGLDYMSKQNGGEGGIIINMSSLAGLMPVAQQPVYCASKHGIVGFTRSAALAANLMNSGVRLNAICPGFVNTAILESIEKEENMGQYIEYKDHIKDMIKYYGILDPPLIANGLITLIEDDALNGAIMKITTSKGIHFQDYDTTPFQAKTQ

IC50 ([1]; read-out: Enzyme Inhibitor IC50 (nM) at 5 nM 15-PGDH, 5 nM recombinant human 15-PGDH): 4910 nM
Molecule: CC(=O)OCCCCS(=O)(=O)c1sc2nc(-c3cccs3)cc(-c3ccccc3)c2c1N [SW209128, 4-((3-amino-4-phenyl-6-(thiophen-2-yl)thieno[2,3-b]pyridin-2-yl)sulfonyl)butyl acetate]

Molecule: (+) SW209415
time of peak PGE2 ([2]; IP 0.5, 1.5 or 5 mg/kg): 3 h | induction of PGE2 in lung, liver, colon and bone marrow ([2]; IP 0.5, 1.5 or 5 mg/kg, 2 h and 3 h): induction of PGE2 in all 4 tissues tested

Molecule: COc1ccc2c(c1)c(CC(=O)O)c(C)n2C(=O)c1ccc(Cl)cc1 [indomethacin, reference compound]
effect of SW033291 on homing in presence of COX inhibitor ([3]; SW033291 10 mg/kg IP plus Indomethacin): near completely blocked

Molecule: CCCC[S+]([O-])c1sc2nc(-c3nccs3)cc(-c3cnc(C)n3C)c2c1N (centres unmarked) [formula (XIII)]
concentration inhibiting recombinant 15-PGDH ([1]; enzyme concentration approximately 6 nM): 3 nM | PGE2 levels in colon, lung, liver and bone marrow ([2]; IP dose of 10 mg/kg body weight): elevates PGE2 levels | homing of hematopoietic stem cells following bone marrow transplantation ([3]; 10 mg/kg body weight): increases homing | chemical stability in aqueous solutions [4]: chemically stable | solubility [5]: 1000 µg/mL | chemical stability with liver extracts [6]: chemically stable | immediate toxicity [7]: no immediate toxicity

half-life [8]: 1.33 h
Molecule: CCCC[S+]([O-])c1sc2nc(-c3cccs3)ccc2c1N (centres unmarked) [SW206980]
Toxicity [9]: >7.5 µM | effect on CellTitre-Glo levels [10]: No effect

Molecule: O=C(c1ccc2nc(-c3ccccc3)c(-c3ccccc3)nc2c1)N1CCCCC1 [SW145753]
luciferase activity of 15-PGDH luciferase fusion cells [11]: increase luciferase activity | 15-PGDH mRNA levels [12]: do not in general alter 15-PGDH mRNA levels | 15-PGDH activity in cells as reflected in PGE2 levels in medium ([13]; IL1-beta 23 hours, compound added for the last 5 hours): clear inhibition of 15-PGDH activity in the cells

Molecule: CCCC[S@](C)(O)c1sc2nc(-c3cccs3)cc(-c3ccccc3)c2c1N [SW033291 isomer B]
IC50 lower than parent racemic mixture [1]: 40% | concentration at which some residual activity is seen ([11]; V9M, printed 'isomer B', context suggests isomer A): 3.2 µM | concentration giving full activity in reporter ([11]; Vaco-9M (V9M)): 0.1 µM | melting temperature ([14]; Differential Scanning Fluorimetry, shifted from 50.5° C.): 68 °C

Molecule: CCCCC(C)(C)[C@H](O)/C=C/[C@H]1[C@H](O)CC(=O)[C@@H]1C/C=C\CCCC(=O)O [dmPGE2, 16,16-dimethyl PGE2]
increase in number of bone marrow derived colonies [15]: slightly greater increase

Molecule: CCCC[S+]([O-])c1sc2nc(-c3nccs3)ccc2c1N (centres unmarked) [SW206992]
Time to inhibition (10 nM) ([1]; time needed to inhibit generation of NADH by 15-PGDH after drug is added): ~2 min | exposure needed for maximal reporter induction ([11]; 24 hours, three cell line backgrounds): ≥ 1000 nM | Concentration for Full Cell Line Reporter Induction ([11]; maximal induction of 15-PGDH-luciferase reporter): >1 µM | melting temperature ([14]; 10 μM protein, 20 uM compound, 100 μM NAD(+), control 49): 59 degrees | Toxicity [9]: >7.5 µM | effect on CellTitre-Glo levels [10]: No effect

direct binding to 15-PGDH by melting temperature shift ([14]; 10 μM and 100 μM cofactor (NAD, NADH)): cannot be demonstrated to bind 15-PGDH
Molecule: COc1ccc(OC)c(N(CC(=O)Nc2cccnc2)S(=O)(=O)c2ccccc2)c1 [SW054384]
luciferase activity of 15-PGDH luciferase fusion cells [11]: increase luciferase activity | 15-PGDH mRNA levels [12]: do not in general alter 15-PGDH mRNA levels | PGE2 level in medium ([13]; compound added 24 hours before IL1-beta, maintained next 26 hours): lower level of PGE2 produced

Molecule: CCCCC[C@H](O)/C=C/[C@H]1[C@H](O)CC(=O)[C@@H]1C/C=C\CCCC(=O)O [PGE2]
increase in number of bone marrow derived colonies [15]: lesser increase

Molecule: CCCC[S+]([O-])c1sc2nc(-c3nccs3)cc(-c3nccn3C)c2c1N (centres unmarked) [SW209125, 2-(butylsulfinyl)-4-(1-methyl-1H-imidazol-2-yl)-6-(thiazol-2-yl)thieno[2,3-b]pyridin-3-amine]
PGE2 induction compared with SW033291 [13]: increased activity relative to SW033291

Molecule: CCCC[S+]([O-])c1sc2nc(-c3nccs3)cc(-c3nccs3)c2c1N (centres unmarked) [SW209124, 2-(butylsulfinyl)-4,6-di(thiazol-2-yl)thieno[2,3-b]pyridin-3-amine]
PGE2 induction compared with SW033291 [13]: increased activity relative to SW033291
